Test results taken from patent US20100222421A1, “Usage of Baicalein in the Preparation of a Pharmaceutical Composition for the Treatment of Traumatic Brain Injury” (National Defense Medical Center, priority 2009, published 2010).

Columns and labels:
Assay type in all cases: in vivo, rat
[1] = system: rats with controlled cortical impact (CCI) injury; assay: Pilot dose-selection studies, behavioural deficits; settings: 10 and 30 mg kg^-1 tested, result for 30 mg kg^-1 (unpublished observations)
Method: Baicalein (30 mg kg^−1) dissolved in 10% dimethyl sulphoxide (0.25-0.3 mL) or a corresponding volume of vehicle (10% dimethyl sulphoxide) was administered i.p. immediately following injury or daily for 4 days (immediately, 25, 49 and 73 h) after injury. Behaviour testing using the rotarod, tactile adhesive removal, mNSS and beam walk tests was performed at 28 hours as well as 4, 7, 14, 21 and 28 days post-injury. At 14 and 28 days, the animals were killed, perfused intravascularly and their brains were processed with cresyl violet staining to assess contusion volume (n=8 for each group).

[2] = Body weight after CCI injury; settings: CCI-injured rats, 30 mg kg^-1 i.p.; P=0.8
Method: A previously described CCI injury procedure was utilized (Chen et al., 2003). Male Sprague-Dawley rats, which have body weight of 250-300 g, were anaesthetized with sodium pentobarbital (i.p.; 50 mgkg^−1; Rhone Merieux, Harlow, UK) and placed in a stereotaxic frame. A 5-mm craniotomy was performed over the left parietal cortex, centered on the coronal suture and 3 mm lateral to the sagittal suture. Considerable care was taken to avoid injury to the underlying dura. Injury was made using a pneumatic piston with a rounded metal tip (2.5 mm diameter) that was angled 22.5° C. to the vertical so that the tip was perpendicular with the brain surface at the centre of the craniotomy. A velocity of 4 ms^−1 and a deformation depth 2 mm below the dura were used. The bone flap was immediately replaced and sealed, and the scalp was closed with sutures. Body temperature was monitored throughout the surgery by a rectal probe; temperature was maintained at 37.0±0.5° C. using a heated pad. Rats were placed in a heated cage to maintain body temperature, while recovering from anaesthesia.
Baicalein (30 mg kg^−1) dissolved in 10% dimethyl sulphoxide (0.25-0.3 mL) or a corresponding volume of vehicle (10% dimethyl sulphoxide) was administered i.p. immediately following injury or daily for 4 days (immediately, 25, 49 and 73 h) after injury. […]

[3] = system: rats with controlled cortical impact (CCI) injury; assay: Cortical contusion volume, cresyl violet staining
Method: A previously described CCI injury procedure was utilized (Chen et al., 2003). Male Sprague-Dawley rats, which have body weight of 250-300 g, were anaesthetized with sodium pentobarbital (i.p.; 50 mgkg^−1; Rhone Merieux, Harlow, UK) and placed in a stereotaxic frame. A 5-mm craniotomy was performed over the left parietal cortex, centered on the coronal suture and 3 mm lateral to the sagittal suture. Considerable care was taken to avoid injury to the underlying dura. Injury was made using a pneumatic piston with a rounded metal tip (2.5 mm diameter) that was angled 22.5° C. to the vertical so that the tip was perpendicular with the brain surface at the centre of the craniotomy. A velocity of 4 ms^−1 and a deformation depth 2 mm below the dura were used. The bone flap was immediately replaced and sealed, and the scalp was closed with sutures. Body temperature was monitored throughout the surgery by a rectal probe; temperature was maintained at 37.0±0.5° C. using a heated pad. Rats were placed in a heated cage to maintain body temperature, while recovering from anaesthesia. Baicalein (30 mg kg^−1) dissolved in 10% dimethyl sulphoxide (0.25-0.3 mL) or a corresponding volume of vehicle (10% dimethyl sulphoxide) was administered i.p. immediately following injury or daily for 4 days (immediately, 25, 49 and 73 h) after injury. Behaviour testing using the rotarod, tactile adhesive removal, mNSS and beam walk tests was performed at 28 hours as well as 4, 7, 14, 21 and 28 days post-injury. At 14 and 28 days, the animals were killed, perfused intravascularly and their brains were processed with cresyl violet staining to assess contusion volume (n=8 for each group). […] Following with terminal anaesthesia, rats were killed by transcardial perfusion first with phosphate-buffered saline (PBS) and then with 4% paraformaldehyde and their tissues were processed on day 1 (for FJB staining and cytokine immunohistochemistry), day 14 (for cresyl violet histology) and day 28 (for cresyl violet histology), post-injury. All solutions were maintained at pH 7.4 and 4° C. Brains were removed and post-fixed in 4% paraformaldehyde overnight and transferred to PBS containing 30% sucrose and 0.1% sodium azide, manufactured by Sigma Chemical Co. located at St Louis, Mo., USA, for cryoprotection. Coronal sections were cut in a cryostat at […] from the level of the olfactory bulbs to the visual cortex. Every 50th slice was used for cresyl violet histology, FJB staining or immunohistochemistry. The distance between similarly stained sections within each group was thus […], with approximately 20 sections per group. […] To measure contusion volumes, cresyl violet-stained sections were digitized and analyzed using a ×1.5 objective and computer image analysis system (Scion Image, Beta Release 4.0.2; Scion Corp., Frederick, Md., USA). […] Contusion area was calculated from all images of cresyl violet-stained sections that contained contused brain; volume measurement was computed by summation of areas multiplied by interslice distance (500 μm).

O=c1cc(-c2ccccc2)oc2cc(O)c(O)c(O)c12 [baicalein]
neuroprotective effects in improving behavioural deficits [1]: found to have neuroprotetcive effects
body weight, baicalein versus vehicle [2]: no significant difference
contusion volume, single-dose versus multiple-dose groups ([3]; 30 mg kg^-1 i.p., days 14 and 28, P>0.05): no significant difference
reduction of contusion volume versus vehicle ([3]; multiple doses 30 mg kg^-1 i.p. daily for 4 days, 14 days post-injury): 42%
reduction of contusion volume versus vehicle ([3]; multiple doses 30 mg kg^-1 i.p. daily for 4 days, 28 days post-injury): 42%
reduction of contusion volume versus vehicle ([3]; single dose 30 mg kg^-1 i.p., 14 days post-injury): 32%
reduction of contusion volume versus vehicle ([3]; single dose 30 mg kg^-1 i.p., 28 days post-injury): 34%
